Test results: patent EP4707289A1, “STEROID-CATIONIC LIPID COMPOUND AND USE THEREOF” (priority 2023, dated 2024)

tested on: IL-6; settings: three-component LNP based on the compound, SARS-CoV-2 antigen mRNA, 30 µg intramuscular; compared with four-component LNP of ALC-0315; FIG. 4

SMILES	expression levels of the systemic inflammatory factor IL-6
CCCCCCCCC(CCCCCC)C(=O)OCCCCCCN(CCCCO)CCCCCCOC(=O)O[C@H]1CC[C@@]2(C)C(=CC[C@H]3[C@@H]4CC[C@H]([C@H](C)CCCC(C)C)[C@@]4(C)CC[C@@H]32)C1 (stereo partly drawn) [Compound 1]	significantly reduced
CCCCCCCCC(CCCCCC)C(=O)OCCCCCCN(CCCCCCOC(=O)O[C@H]1CC[C@@]2(C)C(=CC[C@H]3[C@@H]4CC[C@H]([C@H](C)CCCC(C)C)[C@@]4(C)CC[C@@H]32)C1)CCCn1ccnc1 (stereo partly drawn) [Compound 6]	significantly reduced
CCCCCCCCC(CCCCCC)C(=O)OCCCCCCN(CCCn1ccnc1)CCOC(=O)O[C@H]1CC[C@@]2(C)C(=CC[C@H]3[C@@H]4CC[C@H]([C@H](C)CCCC(C)C)[C@@]4(C)CC[C@@H]32)C1 (stereo partly drawn) [Compound 11]	significantly reduced
